# Patent US20240424426A1, “SOLVENTS FOR SELECTIVE COMPLEXATION OF METAL CATIONS” (THE BOARD OF TRUSTEES OF THE UNIVERSITY OF ALABAMA, priority 2023, published 2024)
# Legend:
# [1] = Liquid-liquid extraction of Na^+ from aqueous LiCl/NaCl solution, ion-selective electrode analysis; conditions: 3 mL neat compound mixed with 3 mL aqueous solution containing 100 ppm LiCl and 100 ppm NaCl; aqueous phase analyzed by ion-selective electrode
# Protocol: (§1) 3 ml of the compound [F·Me·Me] was added neat to 3 mL of an aqueous solution containing 100 ppm LiCl and 100 ppm NaCl. After vigorous mixing of the organic and aqueous phases in a separatory funnel, the phases were separated, and the aqueous phase was analyzed using ion-selective electrodes for both Li^+ and Na^+.
# [2] = Liquid-liquid extraction of Li^+ from aqueous LiCl/NaCl solution, ion-selective electrode analysis; conditions: 3 mL neat compound mixed with 3 mL aqueous solution containing 100 ppm LiCl and 100 ppm NaCl; aqueous phase analyzed by ion-selective electrode
# Protocol: as §1
structure (smiles),measurement,setting,value
COCCOCC(COCC(F)(F)F)OCCOC (centres unmarked) [[F·Me·Me]],Na^+ extracted by the compound,[1],7.3%
same,Li^+ extracted by the compound,[2],26.6%
